Experimental data from US10952390B2, “Catnip cultivar ‘CR3’” (Rutgers, The State University of New Jersey, priority 2016, dated 2021).

Experiments:
Assay type in all cases: in vivo
Aedes aegypti = test: one-choice mosquito landing rate inhibition assay
Description: The clonal population serving as source material for the essential oil was the ‘CR3’ cultivar. The hydro-distilled essential oil from this population was used as the source for the crude essential oil treatment and was partitioned for subsequent fractionation and nepetalactone purification. The clones were transplanted to the field. Immediately before the plants were in full flower, they were harvested and dried at 37° C. with an onsite Powell walk-in forced air heat dryer kept under low heat conditions. Once the plants had lost all moisture, under the temperature and pressure conditions, the leaves and flowers were separated from the stems for hydro-distillation. Essential oils were extracted by hydro-distilling 60 g of dried N. cataria leaves and flowers. They were distilled in a 2 L round bottom flask for 3 hours in 1 L of water and the essential oil was collected in a Clevenger-type trap. The essential oils were then prepared and analyzed by GC/MS. The CR3 essential oil contained about 29% Z, E-nepetalactone and about 59% E, Z-nepetalactone (% of the total essential oil). […]
(§1) Repellency was determined by a one-choice landing assay that uses the amount of mosquito landings to calculate the overall effectiveness of the candidate repellent. […] Time lapse photography recorded one image every five seconds. […]

Ixodes scapularis = test: one-choice tick filter paper repellency assay (petri dish arena); conditions: I. scapularis, 15 minutes, three replicates
Description: (§2) An arena was constructed out of petri dishes to establish a dose response curve of a repellent ('CR3′ essential oil or DEET) filter paper by monitoring the total amount of tick positions over 15 minutes (1 image every 15 sec) and calculating percent repellency. ‘CR3’ oils were extracted with acetone as described in Example 3. In a one-choice assay, the repellent was applied to half of the filter paper and placed into the petri dish where the ticks are placed, the petri dish cover applied, and the number of ticks counted applied to the repellent zone. In the two-choice repellency test (see FIG. 6), DEET and a repellent (‘CR3’ essential oil) were applied to different sides of the filter paper and the ticks are counted in reference to the test repellent, not DEET. Total Tick positions=(# ticks in petri dish)×(60 images) Percent repellency=[(# of ticks in the repellent zone)/(Total Tick positions)]*100 Three replicates were performed for each treatment. Complete repellency was defined as repelling greater than 95% of the ticks.

Dermacentor variabilis = test: as above; conditions: D. variabilis, 15 minutes, three replicates
Description: as §2

Anopholes gambiae = test: one-choice mosquito landing rate inhibition assay
Description: The clonal population serving as source material for the essential oil was the ‘CR3’ cultivar. The hydro-distilled essential oil from this population was used as the source for the crude essential oil treatment and was partitioned for subsequent fractionation and nepetalactone purification. The clones were transplanted to the field. Immediately before the plants were in full flower, they were harvested and dried at 37° C. with an onsite Powell walk-in forced air heat dryer kept under low heat conditions. Once the plants had lost all moisture, under the temperature and pressure conditions, the leaves and flowers were separated from the stems for hydro-distillation. Essential oils were extracted by hydro-distilling 60 g of dried N. cataria leaves and flowers. They were distilled in a 2 L round bottom flask for 3 hours in 1 L of water and the essential oil was collected in a Clevenger-type trap. The essential oils were then prepared and analyzed by GC/MS. The CR3 essential oil contained about 29% Z, E-nepetalactone and about 59% E, Z-nepetalactone (% of the total essential oil).
as §1

[1] = 0.01% of the treatment applied to the filter paper

CCN(CC)C(=O)c1cccc(C)c1 [DEET]
reduction of A. aegypti landing (Aedes aegypti; [1]): about 32% | decrease of mosquito landings (repellency) (Aedes aegypti; A. aegypti, treatment at 1% on filter paper): > 95% | percent repellency (Ixodes scapularis; applied at 0.1%): 59.16±8.94 | percent repellency (Ixodes scapularis; applied at 1%): 99.79±0.36 | percent repellency (Dermacentor variabilis; applied at 0.1%): 86.06±10.2 | percent repellency (Dermacentor variabilis; applied at 1%): 99.31±1.00 | reduction of A. gambiae landing (Anopholes gambiae; [1]): about 35% | decrease of mosquito landings (repellency) (Anopholes gambiae; A. gambiae, treatment at 1% on filter paper): > 95%
